Source: paper PMC11850817 (Scientific Reports, 2025)

What was measured:
[1] = molecular target: FGFR1 (Homo sapiens, UniProt P11362); experiment: Radiometric kinase assay; format: biochemical; details: read-out: Kinase inhibition (%) FGFR1
[2] = molecular target: AKT1 (Homo sapiens, UniProt P31749); experiment: Radiometric kinase assay; format: biochemical; details: read-out: Kinase inhibition (%) AKT1
[3] = molecular target: KDR (VEGFR2) (Homo sapiens, UniProt P35968); experiment: Radiometric kinase assay; format: biochemical; details: read-out: Kinase inhibition (%) KDR (VEGFR2)
[4] = molecular target: T1, AXL (Homo sapiens, UniProt P30530); experiment: Radiometric kinase assay; format: biochemical; details: read-out: Kinase inhibition (%) AXL
T1 sequence (P30530 26-894): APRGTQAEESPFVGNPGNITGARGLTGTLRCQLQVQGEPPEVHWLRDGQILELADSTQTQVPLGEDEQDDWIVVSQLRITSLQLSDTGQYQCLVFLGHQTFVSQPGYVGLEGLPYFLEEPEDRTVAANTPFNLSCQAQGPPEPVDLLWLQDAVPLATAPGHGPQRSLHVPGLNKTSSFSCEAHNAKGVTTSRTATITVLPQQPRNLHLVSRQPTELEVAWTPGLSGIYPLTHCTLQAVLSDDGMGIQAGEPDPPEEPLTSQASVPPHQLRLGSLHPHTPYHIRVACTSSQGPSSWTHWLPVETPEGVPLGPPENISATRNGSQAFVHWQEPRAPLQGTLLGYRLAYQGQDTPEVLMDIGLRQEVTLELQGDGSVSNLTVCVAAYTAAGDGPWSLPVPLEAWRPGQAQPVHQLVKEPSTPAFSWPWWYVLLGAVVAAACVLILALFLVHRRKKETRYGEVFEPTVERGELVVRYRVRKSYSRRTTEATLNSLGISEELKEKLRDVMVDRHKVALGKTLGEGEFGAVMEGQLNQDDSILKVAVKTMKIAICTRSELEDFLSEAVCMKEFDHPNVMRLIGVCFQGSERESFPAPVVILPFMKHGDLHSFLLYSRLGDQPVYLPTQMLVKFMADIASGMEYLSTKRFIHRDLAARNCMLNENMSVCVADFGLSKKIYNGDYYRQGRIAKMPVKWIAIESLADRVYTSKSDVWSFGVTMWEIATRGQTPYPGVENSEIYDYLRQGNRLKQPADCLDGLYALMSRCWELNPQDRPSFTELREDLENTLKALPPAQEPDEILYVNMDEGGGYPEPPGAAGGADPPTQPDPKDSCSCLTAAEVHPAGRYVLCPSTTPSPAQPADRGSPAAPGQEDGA

[5] = molecular target: AKT2 (Homo sapiens, UniProt P31751); experiment: Radiometric kinase assay; format: biochemical; details: read-out: Kinase inhibition (%) AKT2
[6] = test system: EBC-1; experiment: MTT antiproliferative assay, EBC-1; format: cell-based, human; details: Homo sapiens, EBC-1, 72 h, read-out: IC50 EBC-1
[7] = molecular target: NTRK1 (TrkA) (Homo sapiens, UniProt P04629); experiment: Radiometric kinase assay; format: biochemical; details: read-out: Kinase inhibition (%) NTRK1 (TrkA)
[8] = molecular target: CDK6/cyclinD3 (Homo sapiens, UniProt Q00534); experiment: Radiometric kinase assay; format: biochemical; details: read-out: Kinase inhibition (%) CDK6/cyclinD3
[9] = test system: EBC-1, AsPC-1, Mia-Paca-2, HT-29, MCF-7 cancer cells; experiment: MTT antiproliferative assay, cancer cell lines summarised; format: cell-based, human; details: Homo sapiens, read-out: IC50 range against tested cell lines
[10] = test system: NIH3T3; experiment: MTT assay, NIH3T3 non-cancer cell line; format: cell-based; details: Mus musculus, NIH3T3, 72 h, read-out: IC50 NIH3T3
[11] = molecular target: AURKA (Homo sapiens, UniProt O14965); experiment: Radiometric kinase assay; format: biochemical; details: read-out: Kinase inhibition (%) AURKA
[12] = test system: MCF-7; experiment: MTT antiproliferative assay, MCF-7; format: cell-based, human; details: Homo sapiens, MCF7, 72 h, read-out: IC50 MCF-7
[13] = molecular target: MAPK1 (ERK2) (Homo sapiens, UniProt P28482); experiment: Radiometric kinase assay; format: biochemical; details: read-out: Kinase inhibition (%) MAPK1 (ERK2)
[14] = molecular target: KIT (c-Kit) (Homo sapiens, UniProt P10721); experiment: Radiometric kinase assay; format: biochemical; details: read-out: Kinase inhibition (%) KIT (c-Kit)
[15] = molecular target: WEE1 (Homo sapiens, UniProt P30291); experiment: Radiometric kinase assay; format: biochemical; details: read-out: Kinase inhibition (%) WEE1
[16] = molecular target: MAP2K1 (Homo sapiens, UniProt Q02750); experiment: Radiometric kinase assay; format: biochemical; details: read-out: Kinase inhibition (%) MAP2K1
[17] = molecular target: ALK (Homo sapiens, UniProt Q9UM73); experiment: Radiometric kinase assay; format: biochemical; details: read-out: Kinase inhibition (%) ALK
[18] = molecular target: PIK3CA (Homo sapiens, UniProt P42336); experiment: Radiometric kinase assay; format: biochemical; details: read-out: Kinase inhibition (%) PIK3CA
[19] = molecular target: ERBB2 (Her-2) (Homo sapiens, UniProt P04626); experiment: Radiometric kinase assay; format: biochemical; details: read-out: Kinase inhibition (%) ERBB2 (Her-2)
[20] = molecular target: PDGFRB (PDGFRβ) (Homo sapiens, UniProt P09619); experiment: Radiometric kinase assay; format: biochemical; details: read-out: Kinase inhibition (%) PDGFRB (PDGFRβ)
[21] = test system: AsPC-1 cells; experiment: Cell cycle test, RNase/PI flow cytometry; format: cell-based, human; details: AsPC-1, 3, 10, 30, 50 µM, 48 h
[22] = molecular target: NTRK2 (TrkB) (Homo sapiens, UniProt Q16620); experiment: Radiometric kinase assay; format: biochemical; details: read-out: Kinase inhibition (%) NTRK2 (TrkB)
[23] = molecular target: FLT4 (VEGFR3) (Homo sapiens, UniProt P35916); experiment: Radiometric kinase assay; format: biochemical; details: read-out: Kinase inhibition (%) FLT4 (VEGFR3)
[24] = molecular target: ROS1 (Homo sapiens, UniProt P08922); experiment: Radiometric kinase assay; format: biochemical; details: read-out: Kinase inhibition (%) ROS1
[25] = molecular target: PDGFRA (PDGFRα) (Homo sapiens, UniProt P16234); experiment: Radiometric kinase assay; format: biochemical; details: read-out: Kinase inhibition (%) PDGFRA (PDGFRα)

Sequence of NTRK1 (TrkA) (P04629 33-796): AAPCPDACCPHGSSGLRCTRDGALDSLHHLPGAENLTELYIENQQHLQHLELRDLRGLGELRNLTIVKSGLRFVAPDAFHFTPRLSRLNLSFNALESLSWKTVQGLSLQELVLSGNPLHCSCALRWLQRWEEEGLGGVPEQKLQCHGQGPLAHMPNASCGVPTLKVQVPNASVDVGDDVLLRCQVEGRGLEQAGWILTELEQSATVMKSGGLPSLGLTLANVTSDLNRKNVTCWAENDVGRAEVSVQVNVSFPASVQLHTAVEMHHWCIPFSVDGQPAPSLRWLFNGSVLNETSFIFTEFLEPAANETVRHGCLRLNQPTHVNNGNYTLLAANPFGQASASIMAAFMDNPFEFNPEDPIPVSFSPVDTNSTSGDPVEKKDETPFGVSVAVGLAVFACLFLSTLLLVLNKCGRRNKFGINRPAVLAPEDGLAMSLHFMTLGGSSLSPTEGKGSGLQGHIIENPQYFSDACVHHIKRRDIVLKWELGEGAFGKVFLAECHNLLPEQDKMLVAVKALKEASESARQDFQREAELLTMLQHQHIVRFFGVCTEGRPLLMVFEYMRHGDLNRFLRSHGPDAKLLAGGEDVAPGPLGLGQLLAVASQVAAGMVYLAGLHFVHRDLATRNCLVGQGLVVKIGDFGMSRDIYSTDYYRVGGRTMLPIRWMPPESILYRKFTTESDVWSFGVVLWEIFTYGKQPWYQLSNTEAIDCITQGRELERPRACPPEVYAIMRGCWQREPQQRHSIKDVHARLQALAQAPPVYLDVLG
Sequence of ALK (Q9UM73 19-1620): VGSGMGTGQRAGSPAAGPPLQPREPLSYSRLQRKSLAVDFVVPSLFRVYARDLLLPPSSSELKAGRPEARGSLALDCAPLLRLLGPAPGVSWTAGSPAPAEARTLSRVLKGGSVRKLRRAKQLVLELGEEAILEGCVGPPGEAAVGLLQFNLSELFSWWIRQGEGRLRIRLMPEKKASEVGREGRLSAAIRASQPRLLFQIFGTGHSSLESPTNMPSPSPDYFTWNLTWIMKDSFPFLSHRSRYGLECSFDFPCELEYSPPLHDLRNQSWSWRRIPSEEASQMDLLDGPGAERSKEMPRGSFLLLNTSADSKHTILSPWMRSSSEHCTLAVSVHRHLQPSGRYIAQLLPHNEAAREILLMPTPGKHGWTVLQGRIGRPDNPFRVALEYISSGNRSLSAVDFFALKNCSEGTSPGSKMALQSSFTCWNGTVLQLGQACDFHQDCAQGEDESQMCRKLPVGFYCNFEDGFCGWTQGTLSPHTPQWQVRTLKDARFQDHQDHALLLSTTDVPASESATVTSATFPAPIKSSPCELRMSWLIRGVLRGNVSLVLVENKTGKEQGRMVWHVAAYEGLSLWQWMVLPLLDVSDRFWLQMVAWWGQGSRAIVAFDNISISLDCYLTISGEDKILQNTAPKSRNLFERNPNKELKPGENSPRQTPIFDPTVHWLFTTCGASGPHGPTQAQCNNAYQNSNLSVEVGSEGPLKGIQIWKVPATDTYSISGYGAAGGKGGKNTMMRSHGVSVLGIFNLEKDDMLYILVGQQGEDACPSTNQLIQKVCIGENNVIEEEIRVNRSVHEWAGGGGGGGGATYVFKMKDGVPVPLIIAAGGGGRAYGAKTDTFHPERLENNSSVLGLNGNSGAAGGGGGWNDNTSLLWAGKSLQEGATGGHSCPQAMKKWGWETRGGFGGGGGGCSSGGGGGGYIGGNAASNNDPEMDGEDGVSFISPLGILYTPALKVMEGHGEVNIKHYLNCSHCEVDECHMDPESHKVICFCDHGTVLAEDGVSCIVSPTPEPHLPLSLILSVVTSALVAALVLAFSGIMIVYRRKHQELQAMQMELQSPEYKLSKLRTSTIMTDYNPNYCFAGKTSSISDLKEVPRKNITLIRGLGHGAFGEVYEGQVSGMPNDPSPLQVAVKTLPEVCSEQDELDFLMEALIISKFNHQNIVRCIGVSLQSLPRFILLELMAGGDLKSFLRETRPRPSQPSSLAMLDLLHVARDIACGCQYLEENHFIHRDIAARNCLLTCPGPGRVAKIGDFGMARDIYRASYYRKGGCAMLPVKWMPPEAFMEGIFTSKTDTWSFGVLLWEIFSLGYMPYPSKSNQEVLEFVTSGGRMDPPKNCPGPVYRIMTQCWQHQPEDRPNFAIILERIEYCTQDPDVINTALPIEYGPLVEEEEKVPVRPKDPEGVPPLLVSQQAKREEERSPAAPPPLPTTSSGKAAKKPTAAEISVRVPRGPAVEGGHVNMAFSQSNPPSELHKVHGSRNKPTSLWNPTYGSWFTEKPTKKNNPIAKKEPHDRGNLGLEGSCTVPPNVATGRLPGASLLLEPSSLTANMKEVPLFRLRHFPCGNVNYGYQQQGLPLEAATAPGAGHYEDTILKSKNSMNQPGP
Sequence of PIK3CA (P42336 whole entry): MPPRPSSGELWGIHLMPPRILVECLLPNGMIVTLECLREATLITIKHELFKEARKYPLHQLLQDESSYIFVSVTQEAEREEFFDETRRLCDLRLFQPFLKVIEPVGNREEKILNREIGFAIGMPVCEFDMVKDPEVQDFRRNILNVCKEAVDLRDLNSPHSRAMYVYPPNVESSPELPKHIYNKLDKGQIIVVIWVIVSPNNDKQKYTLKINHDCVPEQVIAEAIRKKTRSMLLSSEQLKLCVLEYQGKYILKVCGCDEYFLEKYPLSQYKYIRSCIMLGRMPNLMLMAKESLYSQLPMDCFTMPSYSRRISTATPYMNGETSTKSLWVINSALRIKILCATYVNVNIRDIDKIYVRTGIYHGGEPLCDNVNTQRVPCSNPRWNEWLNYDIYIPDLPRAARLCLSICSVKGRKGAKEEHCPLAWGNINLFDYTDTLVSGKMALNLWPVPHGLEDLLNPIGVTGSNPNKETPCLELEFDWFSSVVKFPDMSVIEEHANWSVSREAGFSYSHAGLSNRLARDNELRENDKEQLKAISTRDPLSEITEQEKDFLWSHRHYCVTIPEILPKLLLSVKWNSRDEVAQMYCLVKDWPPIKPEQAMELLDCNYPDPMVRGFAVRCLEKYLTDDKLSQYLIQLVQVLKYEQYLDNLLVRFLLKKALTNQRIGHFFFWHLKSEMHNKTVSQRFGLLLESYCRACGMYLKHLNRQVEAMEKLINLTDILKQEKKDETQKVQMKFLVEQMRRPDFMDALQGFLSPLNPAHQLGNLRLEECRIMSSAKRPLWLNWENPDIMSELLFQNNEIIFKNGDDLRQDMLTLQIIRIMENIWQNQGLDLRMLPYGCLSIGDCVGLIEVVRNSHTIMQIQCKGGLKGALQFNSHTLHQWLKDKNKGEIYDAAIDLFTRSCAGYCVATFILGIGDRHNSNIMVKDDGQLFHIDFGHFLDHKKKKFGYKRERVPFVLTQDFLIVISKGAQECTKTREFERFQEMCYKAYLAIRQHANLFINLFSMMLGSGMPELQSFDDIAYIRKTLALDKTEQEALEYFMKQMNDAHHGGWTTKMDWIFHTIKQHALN
Sequence of PIK3CA (P27986 whole entry partner): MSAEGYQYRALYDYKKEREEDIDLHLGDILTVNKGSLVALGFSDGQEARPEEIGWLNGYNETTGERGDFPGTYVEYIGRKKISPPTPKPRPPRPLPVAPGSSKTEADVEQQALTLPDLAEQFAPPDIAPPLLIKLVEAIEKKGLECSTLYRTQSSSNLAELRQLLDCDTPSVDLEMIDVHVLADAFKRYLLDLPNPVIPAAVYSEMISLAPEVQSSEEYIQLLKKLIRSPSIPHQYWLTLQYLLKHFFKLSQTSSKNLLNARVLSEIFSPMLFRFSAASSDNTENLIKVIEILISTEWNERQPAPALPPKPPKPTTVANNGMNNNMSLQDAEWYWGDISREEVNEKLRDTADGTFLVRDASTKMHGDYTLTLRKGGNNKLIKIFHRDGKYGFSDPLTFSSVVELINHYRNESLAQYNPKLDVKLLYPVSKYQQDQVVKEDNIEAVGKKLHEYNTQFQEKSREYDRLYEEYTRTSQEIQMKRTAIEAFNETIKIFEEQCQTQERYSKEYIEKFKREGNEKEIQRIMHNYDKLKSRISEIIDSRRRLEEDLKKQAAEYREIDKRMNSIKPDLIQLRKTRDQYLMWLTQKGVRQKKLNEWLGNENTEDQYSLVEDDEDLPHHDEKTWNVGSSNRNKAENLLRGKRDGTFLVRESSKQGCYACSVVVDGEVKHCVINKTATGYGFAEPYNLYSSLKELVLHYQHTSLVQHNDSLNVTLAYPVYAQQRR
Sequence of KIT (c-Kit) (P10721 26-976): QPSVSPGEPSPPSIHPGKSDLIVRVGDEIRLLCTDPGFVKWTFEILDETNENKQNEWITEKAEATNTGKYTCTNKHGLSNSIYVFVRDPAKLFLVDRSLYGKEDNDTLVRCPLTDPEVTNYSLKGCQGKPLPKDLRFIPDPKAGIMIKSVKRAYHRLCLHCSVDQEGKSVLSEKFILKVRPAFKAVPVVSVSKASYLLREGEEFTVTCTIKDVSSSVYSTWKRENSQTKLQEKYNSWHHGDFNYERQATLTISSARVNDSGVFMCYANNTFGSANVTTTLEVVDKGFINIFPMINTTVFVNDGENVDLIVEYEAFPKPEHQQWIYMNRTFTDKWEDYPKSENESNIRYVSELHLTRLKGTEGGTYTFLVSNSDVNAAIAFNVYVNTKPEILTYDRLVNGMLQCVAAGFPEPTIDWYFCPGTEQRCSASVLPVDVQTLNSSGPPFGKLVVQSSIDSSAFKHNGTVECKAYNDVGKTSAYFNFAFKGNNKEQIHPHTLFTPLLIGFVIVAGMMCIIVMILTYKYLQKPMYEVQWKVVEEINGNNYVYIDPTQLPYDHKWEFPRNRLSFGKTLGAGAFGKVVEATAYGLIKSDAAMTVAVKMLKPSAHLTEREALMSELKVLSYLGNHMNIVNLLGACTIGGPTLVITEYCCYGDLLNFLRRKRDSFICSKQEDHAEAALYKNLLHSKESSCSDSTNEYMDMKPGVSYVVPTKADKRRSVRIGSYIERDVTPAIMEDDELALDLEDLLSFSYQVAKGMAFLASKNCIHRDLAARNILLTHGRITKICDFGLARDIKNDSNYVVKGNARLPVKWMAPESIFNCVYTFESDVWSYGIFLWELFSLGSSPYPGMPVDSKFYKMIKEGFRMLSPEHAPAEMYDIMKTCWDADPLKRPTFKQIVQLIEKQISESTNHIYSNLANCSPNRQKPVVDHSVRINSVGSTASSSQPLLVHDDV

- inhibition at 10 µM [1]: -5%
- inhibition at 10 µM [2]: 15%
- inhibition at 10 µM [3]: -9%
- inhibition at 10 µM [4]: 5%
- inhibition at 10 µM [5]: -7%
- inhibition at 10 µM [7]: 2%
- inhibition at 10 µM [8]: 3%
- IC50 [9]: 0.3 to 7.1 µM
- inhibition at 10 µM [11]: 5%
- IC50 [12]: 7.1 ± 4.3 µM
- inhibition at 10 µM [13]: 6%
- inhibition at 10 µM [14]: -8%
- inhibition at 10 µM [15]: -4%
- inhibition at 10 µM [16]: 4%
- inhibition at 10 µM [17]: 15%
- inhibition at 10 µM [18]: 3%
- inhibition at 10 µM [19]: 2%
- inhibition at 10 µM [20]: 14%
- inhibition at 10 µM [22]: 6%
- inhibition at 10 µM [23]: 30%
- inhibition at 10 µM [24]: -2%
- inhibition at 10 µM [25]: 43%
SMILES: O=C1C=C(Nc2ccc(OCc3cn(Cc4ccc(Cl)c(Cl)c4)nn3)cc2)C(=O)c2ccccc21 [Compound 4e, 2-((4-((1-(3,4-Dichlorobenzyl)−1H-1,2,3-triazol-4-yl)methoxy)phenyl)amino) naphthalene-1,4-dione]
- IC50 [6]: 0.3 ± 0.1 µM
- IC50 [10]: 6.5 ± 1.2 µM
- Effect on cell cycle distribution (S and G2/M phases) [21]: dose-dependently increased the number of cells in the S phase and simultaneously reduced the cells in G2/M phase
- Effect on sub-G1 and G0/G1 phases [21]: increase in cells in sub-G1 phase, while reducing G0/G1 cells
